Laboratory results as given in US8791159B2, “Compound capable of binding S1P receptor and pharmaceutical use thereof” (Ono Pharmaceutical Co., Ltd., priority 2003, dated 2014).
One block for each compound: values may come before it.

Tests used:
[1] = cited from earlier work
[2] = after administration; cited from earlier work
lymphocyte in blood = test: Counting the number of lymphocyte in blood (1); assay type: in vivo, male Sprague-Dawley rats; settings: oral, 10, 30 and 100 mg/kg, 4 hours after the administration, rat
Experimental: Test compounds were orally administered to male Sprague-Dawley rats (Charles Riber Laboratories, Japan, Ltd., 6-week-old at using). Four to 72 hours after the administration, the blood was collected from the aorta abdominalis under ether anesthesia. Using a portion of the thus collected blood, the number of blood cells were counted and the number of lymphocyte, neutrophil and platelet were counted. Each group had 4 or 5 animals.

EDG-6 = molecular target: T1, EDG-6 (Homo sapiens, UniProt O95977); test: Inhibitory activity on binding of [3H]-S1P to EDG-6 (EDG-6-overexpressing cells); settings: competitive binding test, 5 nM D-erythro-sphingosine-3-[3H]-1-phosphate, 60 minutes on ice
T1 construct: expressed in transfected cells; host or cells: EDG-6-overexpressing cells
T1 sequence (O95977 1-384): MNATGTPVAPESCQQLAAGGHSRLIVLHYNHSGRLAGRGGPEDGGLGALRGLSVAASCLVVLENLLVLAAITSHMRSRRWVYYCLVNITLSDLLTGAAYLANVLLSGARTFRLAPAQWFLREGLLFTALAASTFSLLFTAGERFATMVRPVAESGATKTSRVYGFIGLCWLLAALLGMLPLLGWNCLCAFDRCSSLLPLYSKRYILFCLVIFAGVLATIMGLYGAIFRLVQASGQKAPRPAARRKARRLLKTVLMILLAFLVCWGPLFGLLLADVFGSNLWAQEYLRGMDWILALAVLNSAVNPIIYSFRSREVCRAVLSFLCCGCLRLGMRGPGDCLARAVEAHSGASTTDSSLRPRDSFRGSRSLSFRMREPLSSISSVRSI
Experimental: Firstly, EDG-6-overexpressing cells were seeded at a density of 2×10^5 cells/well into a 12-well plate. After 12 hours, the cells were washed with 0.5 mL of an assay buffer twice. In a saturation binding test for determining the KD value and the Bmax value, the cells were incubated in 0.4 mL of an assay buffer containing D-erythro-sphingosine-3-[^3H]-1-phosphate at various concentrations and 2 μL of 0.01 N NaOH for 60 minutes on ice. Then, the wells were washed with 0.8 mL of the assay buffer twice and the whole cells were disrupted by adding 0.1 mL of 0.5% TCA (trichloroacetic acid), 0.4 mL of a lysis buffer (2% Na2CO3, 4% NaOH, 0.1% SDS) and 0.1 mL of 1 N hydrochloric acid. Then, 0.5 mL of the lysed solution was collected in a glass vial (Packard) with a pipette. After adding 7 mL of ACSII (Amersham), the mixture was thoroughly stirred and the radioactivity was measured with a liquid scintillation counter (TRI-CARB 2900TR Packard), thereby determining the KD value. The value of the nonspecific binding was determined by adding unlabeled S1P at a final concentration of 25 μM as a substitute for 0.01 N NaOH. […] The subsequent procedures following washing were carried out as in the saturation binding test and the radioactivity was measured as described above.

Human EDG-1 = Human EDG-1 (Homo sapiens, UniProt P21453); test: Agonistic activity against EDG by monitoring intracellular calcium ion concentration [Ca2+]i; assay type: cell-based; settings: human EDG-1 overexpressing CHO cells, increase ratio of [Ca2+]i
Experimental: Human EDG-1, EDG-3, EDG-5 or EDG-8 gene overexpressing Chinese Hamster Ovary (CHO) cells were cultured in Ham's F12 medium (manufactured by GIBCO BRL) containing 10% FBS (fetal bovine serum), penicillin/streptomycin and blasticidin (5 μg/ml). The cultured cells were incubated in a 5 μM Fura2-AM solution (Ham's F12 medium containing 10% of FBS, 20 mM HEPES buffer (pH7.4) and 2.5 mM probenecid) at 37° C. for 60 minutes. After washing once with Hanks solution containing […] buffer (pH7.4) and 2.5 mM probenecid, the plate was soaked in the same solution until assay. Then, the plate was set on a fluorescent drug screening system (FDSS 6000; Hamamatsu Photonics) and the intracellular calcium ion concentration was measured without stimulation for 30 seconds. A test compound (final concentration: 1 nM to 10 μM, dimethylsulfoxide (DMSO) solution) was added and S1P (final concentration: 100 nM) was added 5 minutes thereafter. Then, the increase in the intracellular calcium ion concentration was measured before and after the addition of S1P at intervals of 3 seconds (excitation wavelength: 340 nm and 380 nm, fluorescence wavelength: 500 nm). […]

S1P receptor = settings: cited from earlier work

Sequence of Human EDG-1 (P21453 whole entry): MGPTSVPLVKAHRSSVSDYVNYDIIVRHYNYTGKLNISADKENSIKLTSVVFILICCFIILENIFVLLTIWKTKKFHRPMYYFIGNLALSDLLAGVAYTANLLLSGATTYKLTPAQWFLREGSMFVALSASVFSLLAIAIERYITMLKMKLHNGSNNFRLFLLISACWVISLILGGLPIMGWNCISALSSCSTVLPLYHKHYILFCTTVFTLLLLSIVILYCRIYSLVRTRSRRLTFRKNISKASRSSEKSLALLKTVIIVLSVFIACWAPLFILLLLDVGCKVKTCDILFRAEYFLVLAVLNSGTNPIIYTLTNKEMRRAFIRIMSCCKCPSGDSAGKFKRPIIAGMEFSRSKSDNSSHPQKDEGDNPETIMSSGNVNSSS

melting point: 77 to 83 °C
Structure (SMILES): CC1=C(CN2CC(C(=O)O)C2)CCc2cc(OCCC(c3ccccc3)c3ccccc3)ccc21.Cl

Structure (SMILES): CCCCCCCCc1ccc(CCC(N)(CO)CO)cc1.Cl [FTY720, 2-amino-2-[2-(4-octylphenyl)ethyl]-1,3-propanediol hydrochloride]
incidence rate of acute rejection ([1]; human kidney transplantation): significantly lowering the incidence rate of acute rejection
lymphocyte count in the peripheral blood ([1]; human, in vivo): reducing the lymphocyte count in the peripheral blood
side effect (bradycardia) [2]: causing bradycardia after administration

melting point: 162.5 to 163.3 °C
Structure (SMILES): CC1=C(CNCCC(=O)O)CCc2cc(OCCCCc3ccccc3)ccc21.Cl

Ki (EDG-6): 352 nM
EC50 (Human EDG-1): 255 nM
Structure (SMILES): O=C(O)CCNCCCc1ccc(OCCCCCc2ccccc2)cc1 [3-[3-(4-(5-phenylpentyloxy)phenyl)propylamino]propanoic acid]
number of lymphocyte in blood (lymphocyte in blood): concentration-dependently lowered the number of lymphocyte in blood

melting point: 124 to 127 °C
Structure (SMILES): CC1=C(CN2CC(C(=O)O)C2)CCc2cc(OCC(C)(C)Cc3ccccc3)ccc21.Cl

Structure (SMILES): CCCCCCCCc1ccc(CCC(N)(CO)COP(=O)(O)O)cc1 (stereo not shown) [phosphorylated FTY720]
binding to S1P receptor subtypes (S1P receptor): binds to multiple subtypes of the S1P receptors, i.e., EDG-1, EDG-3, EDG-6 and EDG-8
